Experimental findings from patent US9840512B2, “Antidiabetic bicyclic compounds” (Merck Sharp & Dohme Corp., priority 2013, dated 2017) are described below.

For test [1], the target named is T1, human GPR40 (Homo sapiens, UniProt O14842). As to the kind of experiment: Inositol Phosphate Turnover (IP1) Assay 1. The note with it: Human IP1 Assay 1, EC50, nM, HEK cells stably expressing human GPR40.
Experimental: The assay is performed in 96-well format. HEK cells stably expressing human GPR40 are plated to be 60-80% confluent within 72 h. After 72 h, the plates are aspirated and the cells washed with inositol-free DMEM (ICN). The wash media is replaced with 150 μL of 3H-inositol labeling media (inositol-free media containing 0.4% human albumin or 0.4% mouse albumin, 1× pen/strep antibiotics, glutamine, 25 mM HEPES to which is added 3H-myo-inositol NEN #NET114A 1 mCi/mL, 25 Ci/mmol diluted 1:150 in loading media with a final specific radioactivity of 1 μCi/150 μL). Alternatively, the human and mouse albumin can be added after the overnight labeling step before the addition of LiCl.
The assay is typically run the next day after 18 h labeling. On the day of the assay, 5 μL of 300 mM LiCl is added to all wells and incubated at 37 degrees for 20 min. 0.75 μL of 200× compounds are added and incubated with the cells for 60 min at 37 degrees. The media is then aspirated off and the assay terminated with the addition of 60 μL 10 mM formic acid. The cells are lysed for 60 min at room temperature. 15-30 μL of lysate is mixed with 70 μL/1 mg YSi SPA beads (Amersham) in clear bottom Isoplates. The plates are shaken for 2 h at room temperature. Beads are allowed to settle and the plates are counted in the Wallac Microbeta.
Test [2] concerns the target T1, human GPR40. As to the kind of experiment: FLIPR assay (agonist-induced calcium mobilization). The following applies: for EC50: Human FLIPR EC50, nM or % activation (EC50 values), GPR40/CHO NFAT BLA cells; for activation at 10 µM: CHONFAT, read-out: Human FLIPR EC50, nM or % activation (% activation values).
Experimental: Human and mouse GPR40 stable cell-lines were generated in CHO cells stably expressing NFAT BLA (Beta-lactamase). […] The expression plasmids were transfected using lipofectamine (Life Technologies) following manufacturer's instructions. Stable cell-lines were generated following drug selection.
FLIPR (Fluorimetric Imaging Plate Reader, Molecular Devices) assays were performed to measure agonist-induced calcium mobilization of the stable clones. For the FLIPR assay, one day before assay, GPR40/CHO NFAT BLA cells were seeded into black-wall-clear-bottom 384-well plates (Costar) at 1.4×10e4 cells/20 μL medium/well. The cells were incubated with 20 μl/well of the assay buffer (HBSS, 0.1% BSA, 20 mM HEPES, 2.5 mM probenecid, pH 7.4) containing 8 μM fluo-4, AM, 0.08% pluronic acid at room temperature for 100 minutes. Fluorescence output was measured using FLIPR. Compounds were dissolved in DMSO and diluted to desired concentrations with assay buffer.
Test [3] has as its target T1, human GPR40. Put plainly: Inositol Phosphate Turnover (IP1) Assay 2. Further details: expressed in transfected cells. The class given is cell-based. In short, it runs like this: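 HEK cells stably expressing human GPR40 (aequorin reporter background) seeded and grown 16 h at 37 °C, then treated with compound in IP-One stimulation buffer for 60 min at 37 °C. IP1 accumulation detected by HTRF/FRET after 60 min with detection reagents in the dark.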

The mark [4] stands for this setting: HEK cells stably expressing human GPR40, Table 2, read-out: Human IP1.
Where [5] appears, read: HEK cells stably expressing human GPR40, Table 3, read-out: Human IP1 activity.

T1 sequence (O14842 whole entry): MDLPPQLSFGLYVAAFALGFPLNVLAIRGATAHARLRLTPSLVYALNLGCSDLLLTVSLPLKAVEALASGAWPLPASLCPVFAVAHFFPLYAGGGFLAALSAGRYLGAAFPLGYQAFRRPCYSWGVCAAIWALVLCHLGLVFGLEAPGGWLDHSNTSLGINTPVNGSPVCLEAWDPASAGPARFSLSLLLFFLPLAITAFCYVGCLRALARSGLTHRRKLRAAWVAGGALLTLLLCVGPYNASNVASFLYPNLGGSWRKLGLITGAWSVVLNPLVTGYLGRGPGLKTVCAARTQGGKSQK

`CC#CC(CC(=O)O)c1ccc2c(c1)CCC(c1nc(-c3c(C)cccc3C)ccc1F)O2` (mixture of isomers) [Example 16]: the EC50 in test [1] worked out at 710 nM; in test [2], 76 nM. In the case of `CC#CC(CC(=O)O)c1ccc2c(c1)CCC(c1ccc(C(F)(F)F)c(Cl)c1)O2` (mixture of isomers) [Example 18], the EC50 in test [2] turned out to be 1540 nM. Still for that read-out and setting: with `CC#CC(CC(=O)O)c1ccc2c(c1)CCC(c1nc(-c3cccnc3C(F)(F)F)ccc1F)O2` (mixture of isomers) [Example 20] the figure was 172 nM. On the same count and under the same terms, with `CC#CC(CC(=O)O)c1ccc2c(c1)CCC(c1cccc(-c3cccnc3C)c1)O2` (mixture of isomers) [Example 26] the figure was 244 nM. As for `CC#C[C@@H](CC(=O)O)c1ccc2c(c1)CCC(c1cc(-c3ccc(C(F)(F)F)cc3)ccc1F)O2` (mixture of isomers) [Example 29], in test [2], the EC50 turned out to be 162 nM. Still for that read-out and setting: with `CC#C[C@@H](CC(=O)O)c1ccc2c(c1)CCC(c1cc(-c3cc(OC)ccc3F)ccc1F)O2` (mixture of isomers) [Example 30] the figure was 128 nM; with `Cc1cccc(C)c1-c1cccc(C2CCc3cc(C(CC(=O)O)c4ccccn4)ccc3O2)c1` (mixture of isomers) [Example 34], 734 nM.

As for `Cc1cccc(C)c1-c1cccc(C2CCc3cc(C(CC(=O)O)C4CC4)ccc3O2)c1` (mixture of isomers) [Example 43], the EC50 in test [2] worked out at 2040 nM. The same measure, in the same setting: with `Cc1ccccc1-c1cccc(C2CCc3cc4c(cc3O2)OC[C@H]4CC(=O)O)c1F` (mixture of isomers) [Example 58] the figure was 1040 nM. For the molecule `O=C(O)CCc1ccc2c(c1)CCC(c1ccccc1)O2` (racemic) [Example 2], in test [2], the activation at 10 µM amounted to 79%. Still for that read-out and setting: with `Cc1cccc(C)c1-c1cccc(C2CC(=O)c3cc(CCC(=O)O)ccc3O2)c1` (racemic) [Example 7, 3-(2-(2′,6′-dimethyl-[1,1′-biphenyl]-3-yl)-4-oxochroman-6-yl)propanoic acid] the figure was 70%. On to `Cc1cccc(C)c1-c1cccc(C2CC(F)(F)c3cc(CCC(=O)O)ccc3O2)c1` (racemic) [Example 8, 3-(2-(2′,6′-dimethyl-[1,1′-biphenyl]-3-yl)-4,4-difluorochroman-6-yl)propanoic acid], for which, in test [2], the EC50 came to 349 nM.

For the molecule `CC#C[C@@H](CC(=O)O)c1ccc2c(c1)CCC(c1cc(-c3cccnc3C(F)(F)F)ccc1F)O2` (single isomer, unassigned) [Example 36], in test [2], the EC50 turned out to be 178 nM. As to `CC#C[C@@H](CC(=O)O)c1ccc2c(c1)CCC(c1cccc(-c3c(C)noc3C)c1)O2` (single isomer, unassigned) [Example 39], in test [2], the EC50 was 113 nM.

Regarding `CC#C[C@@H](CC(=O)O)c1ccc2c(c1)CCC(c1cccc(-c3c(C)noc3C)c1)O2` (single isomer, unassigned) [Example 40], the EC50 in test [2] was 255 nM. Same read-out and setting: with `CC#CC(CC(=O)O)c1ccc2c(c1)OC(c1ccc(-c3c(C)cccc3C)cc1)CC2` (single isomer, unassigned) [Example 53] the figure was 2140 nM; with `CC#CC(CC(=O)O)c1ccc2c(c1)OC(c1ccc(-c3c(C)cccc3C)cc1)CC2` (single isomer, unassigned) [Example 54], 1090 nM; with `Cc1cccc(C)c1-c1cccc(C2CCc3cc(-c4cc(=O)[nH][s+]4[O-])ccc3O2)c1` [Example 9, (1R)-5-(2-(2′,6′-dimethyl-[1,1′-biphenyl]-3-yl)chroman-6-yl)isothiazol-3(2H)-one 1-oxide], 1920 nM. Still for that read-out and setting: with `Cc1cccc(C)c1-c1cccc(C2CCc3nc(CCC(=O)O)ccc3O2)c1` (centres unmarked) [Example 10, 3-(2-(2′,6′-dimethyl-[1,1′-biphenyl]-3-yl)-3,4-dihydro-2H-pyrano[3,2-b]pyridin-6-yl)propanoic acid] the figure was 1310 nM.

For the molecule `COc1ccccc1C(CC(=O)O)c1ccc2c(c1)CCC(c1cccc(-c3c(C)cccc3C)c1)O2` (centres unmarked) [Example 45], in test [2], the activation at 10 µM was found to be 12.5%. On the same count and under the same terms, with `COc1cccc(C(CC(=O)O)c2ccc3c(c2)CCC(c2cccc(-c4c(C)cccc4C)c2)O3)c1` (centres unmarked) [Example 46] the figure was 41%; with `COc1ccc(C(CC(=O)O)c2ccc3c(c2)CCC(c2cccc(-c4c(C)cccc4C)c2)O3)cc1` (centres unmarked) [Example 47], 61%.

For `Cc1cccc(C)c1-c1cccc(C2CCc3cc4c(cc3O2)OC[C@H]4CC(=O)O)c1` (stereo partly drawn) [Example 55, 2-((3S)-7-(2′,6′-dimethyl-[1,1′-biphenyl]-3-yl)-3,5,6,7-tetrahydro-2H-furo[3,2-g]chromen-3-yl)acetic acid], in test [2], the EC50 came out at 247 nM. Still for that read-out and setting: with `Cc1ccccc1-c1ccc(C2CCc3cc4c(cc3O2)OC[C@H]4CC(=O)O)c(F)c1` (some centres unmarked) [Example 57] the figure was 1050 nM. With `COc1cc(F)cc(-c2ccc(C3CCc4ccc([C@@H](CC(=O)O)C5CC5)cc4O3)cc2)c1` (some centres unmarked) [Example 72], the EC50 in test [3] (setting [4]) came out at 116 nM. Still for that read-out and setting: with `O=C(O)C[C@H](c1ccc2c(c1)OC(c1ccc(-c3cccc(OCC(F)(F)F)c3)cc1)CC2)C1CC1` (some centres unmarked) [Example 73] the figure was 1200 nM. On the same count and under the same terms, with `COc1cc(-c2ccc(C3CCc4ccc([C@@H](CC(=O)O)C5CC5)cc4O3)cc2)ccn1` (some centres unmarked) [Example 74] the figure was 19 nM; with `COc1cccc(-c2ccc(C3CCc4ccc([C@@H](CC(=O)O)C5CC5)cc4O3)cc2)n1` (some centres unmarked) [Example 75], 304 nM. Same read-out and setting: with `O=C(O)C[C@H](c1ccc2c(c1)OC(c1ccc(-c3cc(OC(F)(F)F)ccc3F)cc1)CC2)C1CC1` (some centres unmarked) [Example 76] the figure was 650 nM; with `COc1cncc(-c2ccc(C3CCc4ccc([C@@H](CC(=O)O)C5CC5)cc4O3)cc2)n1` (some centres unmarked) [Example 77], 920 nM.

In the case of `O=C(O)C[C@H](c1ccc2c(c1)OC(c1ccc(-c3cccc(OC4CC4)c3)cc1)CC2)C1CC1` (some centres unmarked) [Example 78], the EC50 in test [3] (setting [4]) worked out at 1700 nM. Still for that read-out and setting: with `COc1cccc(-c2ccc(C3CCc4ccc([C@@H](CC(=O)O)C5CC5)cc4O3)cc2)c1` (some centres unmarked) [Example 79] the figure was 22 nM. Take `CSc1cccc(-c2ccc(C3CCc4ccc([C@@H](CC(=O)O)C5CC5)cc4O3)cc2)c1` (some centres unmarked) [Example 81]: the EC50 in test [3] (setting [4]) came out at 165 nM.

`COc1ccc(F)c(-c2ccc(C3CCc4ccc([C@@H](CC(=O)O)C5CC5)cc4O3)cc2)c1F` (some centres unmarked) [Example 82]: the EC50 in test [3] (setting [4]) stood at 54 nM. For `CCOc1cc(-c2ccc(C3CCc4ccc([C@@H](CC(=O)O)C5CC5)cc4O3)cc2)ccc1F` (some centres unmarked) [Example 84], the EC50 in test [3] (setting [4]) came out at 1520 nM. On the same count and under the same terms, with `COc1ccc(F)c(-c2ccc(C3CCc4ccc(C(CC(=O)O)C5CC5)nc4O3)cc2)c1` (centres unmarked) [Example 136, 3-cyclopropyl-3-(2-(2′-fluoro-5′-methoxy-[1,1′-biphenyl]-4-yl)-3,4-dihydro-2H-pyrano[2,3-b]pyridin-7-yl)propanoic acid] the figure was 217 nM. Regarding `COc1ccc(F)c(-c2ccc([C@@H]3COc4ccc([C@H](C5CC5)[C@H](C)C(=O)O)cc4O3)c(C(F)(F)F)n2)c1` [Example 162, (2S,3R)-3-cyclopropyl-3-((R)-3-(6-(2-fluoro-5-methoxyphenyl)-2-(trifluoromethyl)-pyridin-3-yl)-2,3-dihydrobenzo[b][1,4]dioxin-6-yl)-2-methylpropanoic acid], in test [3] (setting [5]), the EC50 stood at 8.2 nM. For `COc1ccc(F)c(-c2ccc([C@@H]3COc4ccc([C@H](C5CC5)[C@H](C)C(=O)O)cc4O3)cc2C(OC)C(C)(C)C)c1` (some centres unmarked) [Example 163], the EC50 in test [3] (setting [5]) is 2.1 nM. Still for that read-out and setting: with `COc1ccc(F)c(-c2ccc([C@@H]3COc4ccc([C@H](C5CC5)[C@H](C)C(=O)O)cc4O3)nc2C(F)(F)F)c1` [Example 164] the figure was 8.2 nM.

Consider `COc1ccc(F)c(-c2ccc(C3COc4ccc([C@H](C5CC5)[C@H](C)C(=O)O)cc4O3)cc2)c1` (some centres unmarked) [Example 170], for which the EC50 in test [3] (setting [5]) is 0.17 nM.

On to `CC#C[C@@H](CC(=O)O)c1ccc2c(c1)OCC(c1ccc(-c3cc(OC)ccc3F)cc1)O2` (some centres unmarked) [Example 175], for which the EC50 in test [3] (setting [5]) is 220 nM. Same read-out and setting: with `COc1ccc(F)c(-c2ccc([C@@H]3COc4ccc([C@H](C5CC5)[C@H](C)C(=O)O)cc4O3)cc2Cl)c1` [Example 178] the figure was 10.6 nM; with `COc1ccc(F)c(-c2ccc([C@H]3COc4ccc([C@H](C5CC5)[C@H](C)C(=O)O)cc4O3)cc2Cl)c1` [Example 179], 16.3 nM; with `COc1ccc(F)c(-c2ccc([C@@H]3COc4ccc([C@H](C5CC5)[C@H](C)C(=O)O)cc4O3)cc2-c2cccc3ccn(C)c23)c1` [Example 180], 4.8 nM. On the same count and under the same terms, with `COc1ccc(F)c(-c2ccc([C@H]3COc4ccc([C@H](C5CC5)[C@H](C)C(=O)O)cc4O3)cc2-c2cccc3ccn(C)c23)c1` [Example 181] the figure was 8.3 nM.

Regarding `COc1ccc(F)c(-c2ccc([C@H]3COc4ccc([C@H](C5CC5)[C@@H](C)C(=O)O)cc4O3)cc2Cl)c1` [Example 183], the EC50 in test [3] (setting [5]) stood at 99.6 nM. Still for that read-out and setting: with `COc1ccc(F)c(-c2ccc(C3COc4ccc([C@H](C5CC5)[C@H](C)C(=O)O)c(F)c4O3)cc2)c1` (some centres unmarked) [Example 184] the figure was 1.6 nM. Consider `C[C@H](C(=O)O)[C@H](c1ccc2c(c1)O[C@H](C1CN([C@H](C)c3cc(C(F)(F)F)ccc3C(F)(F)F)C1)CO2)C1CC1` [Example 189, (2S,3R)-3-((R)-3-(1-((R)-1-(2,5-bis(trifluoromethyl)phenyl)ethyl)azetidin-3-yl)-2,3-dihydrobenzo[b][1,4]dioxin-6-yl)-3-cyclopropyl-2-methylpropanoic acid], for which, in test [3] (setting [5]), the EC50 is 13.3 nM. Consider `C[C@H](C(=O)O)[C@H](c1ccc2c(c1)O[C@H](C1CN([C@@H](C)c3cc(C(F)(F)F)ccc3C(F)(F)F)C1)CO2)C1CC1` [Example 190], for which the EC50 in test [3] (setting [5]) turned out to be 20.3 nM.
